Data as given in patent US7307089B2, “Aryloxy quinolines and uses thereof” (Roche Palo Alto LLC, priority 2005, dated 2007).
pKi: −log10 of the molar value. Counter-ions that a name gives are not always drawn.

Assays:
[1] = molecular target: T1, recombinant human 5-HT6 receptor (Homo sapiens, UniProt P50406); assay: Radioligand binding studies: competition for [3H]LSD binding in HEK293 cell membranes; conditions: [3H]LSD (5 nM) displacement, membranes of HEK293 cells stably expressing the receptor, 60 min at 37° C., pH 7.4
T1 construct: expressed in transfected cells; membranes used
Protocol: Radioligand Binding Studies
This example illustrates in vitro radioligand binding studies of compound of formula I.
The binding activity of compounds of this invention in vitro was determined as follows. Duplicate determinations of ligand affinity are made by competing for binding of [^3H]LSD in cell membranes derived from HEK293 cells stably expressing recombinant human 5-HT6 receptor. This cell line was prepared by the method described by Monsma et al., Molecular Pharmacology, Vol. 43 pp. 320-327 (1993).
All determinations were made in assay buffer containing 50 mM Tris-HCl, 10 mM MgSO4, 0.5 mM EDTA, 1 mM ascorbic acid, pH 7.4 at 37° C., in a 250 microliter reaction volume. Assay tubes containing [^3H] LSD (5 nM), competing ligand, and membrane were incubated in a shaking water bath for 60 min. at 37° C., filtered onto Packard GF-B plates (pre-soaked with 0.3% PEI) using a Packard 96 well cell harvester and washed 3 times in ice cold 50 mM Tris-HCl. Bound [^3H] LSD was determined as radioactive counts per minute using Packard TopCount.
Displacement of [3H]LSD from the binding sites was quantified by fitting concentration-binding data to a 4-parameter logistic equation:
[formula] where Hill is the Hill slope, [ligand] is the concentration of competing radioligand and IC50 is the concentration of radioligand producing half-maximal specific binding of radioligand. […]

T1 sequence (P50406 whole entry): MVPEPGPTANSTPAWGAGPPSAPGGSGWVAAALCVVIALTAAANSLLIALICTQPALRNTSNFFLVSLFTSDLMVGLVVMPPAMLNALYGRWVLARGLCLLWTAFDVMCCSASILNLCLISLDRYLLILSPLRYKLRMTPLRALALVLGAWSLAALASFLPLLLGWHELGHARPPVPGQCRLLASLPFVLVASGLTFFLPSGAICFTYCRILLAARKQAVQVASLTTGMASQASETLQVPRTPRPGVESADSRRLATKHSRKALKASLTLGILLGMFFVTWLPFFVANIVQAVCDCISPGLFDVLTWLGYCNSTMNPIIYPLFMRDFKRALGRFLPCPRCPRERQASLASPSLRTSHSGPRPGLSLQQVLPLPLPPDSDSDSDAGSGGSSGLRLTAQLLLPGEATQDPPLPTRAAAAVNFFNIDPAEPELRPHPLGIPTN

Row | SMILES | melting point | pKi [1]
1 | Cc1cnc2c(N3CCNCC3)cccc2c1Oc1ccccc1 (as salt: TFA) | 143 to 144 °C | 
2 | COc1cc(N2CCNCC2)c2ncc(C)c(Oc3ccccc3)c2c1 [Compound 10, 6-Methoxy-3-methyl-4-phenoxy-8-piperazin-1-yl-quinoline] |  | ~9.00
3 | COc1cccc(Oc2c(C)cnc3c(N4CCNCC4)cccc23)c1 (as salt: hydrochloride) [Compound 2, 4-(3-Methoxy-phenoxy)-3-methyl-8-piperazin-1-yl-quinoline] | 254 to 255 °C (dec.) | 
